# Measurements reported in ChEMBL document CHEMBL4619828, “Discovery of Potent and Orally Bioavailable Small Molecule Antagonists of Toll-like Receptors 7/8/9 (TLR7/8/9)” (ACS Med Chem Lett, 2020).
# Experiments:
# Toll-like receptor 7 = target: T1, Toll-like receptor 7 (Mus musculus, UniProt P58681); experiment: In vivo antagonist activity at TLR7 in po dosed C57BL/6 mouse assessed as reduction of gardiquimod-induced IL-6 production pretreated for 30 mins followed by gardiquimod-stimulation and measured after 120 mins by ELISA
# T1 sequence (P58681 whole entry): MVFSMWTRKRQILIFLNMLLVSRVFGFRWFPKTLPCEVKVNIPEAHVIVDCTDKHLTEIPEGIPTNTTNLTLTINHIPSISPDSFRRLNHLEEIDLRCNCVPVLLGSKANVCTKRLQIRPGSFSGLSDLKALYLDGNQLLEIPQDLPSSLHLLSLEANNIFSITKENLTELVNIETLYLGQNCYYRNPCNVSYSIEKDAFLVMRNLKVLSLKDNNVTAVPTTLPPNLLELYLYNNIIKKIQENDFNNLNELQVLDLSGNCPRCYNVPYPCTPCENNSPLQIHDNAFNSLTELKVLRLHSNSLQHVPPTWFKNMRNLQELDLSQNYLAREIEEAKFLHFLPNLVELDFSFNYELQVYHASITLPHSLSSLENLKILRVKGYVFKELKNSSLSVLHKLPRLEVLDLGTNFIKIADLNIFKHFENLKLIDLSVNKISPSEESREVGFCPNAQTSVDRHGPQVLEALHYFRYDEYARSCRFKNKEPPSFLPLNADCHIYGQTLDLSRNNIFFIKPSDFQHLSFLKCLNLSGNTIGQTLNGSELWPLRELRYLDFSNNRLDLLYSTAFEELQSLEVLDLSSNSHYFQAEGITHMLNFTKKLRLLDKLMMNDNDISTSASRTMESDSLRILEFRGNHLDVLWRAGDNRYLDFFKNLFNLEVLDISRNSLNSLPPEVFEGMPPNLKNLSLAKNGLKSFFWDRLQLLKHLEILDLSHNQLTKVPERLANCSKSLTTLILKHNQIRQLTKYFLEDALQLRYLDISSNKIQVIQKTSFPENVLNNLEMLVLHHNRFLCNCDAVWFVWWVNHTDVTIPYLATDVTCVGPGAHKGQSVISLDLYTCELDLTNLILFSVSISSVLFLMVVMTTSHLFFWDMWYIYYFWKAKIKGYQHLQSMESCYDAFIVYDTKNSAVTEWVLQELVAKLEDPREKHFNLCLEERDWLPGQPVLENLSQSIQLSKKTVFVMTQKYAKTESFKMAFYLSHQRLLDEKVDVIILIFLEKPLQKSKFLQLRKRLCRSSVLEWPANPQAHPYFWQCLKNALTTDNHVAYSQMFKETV
# [1] = Terminal half life in mouse at 3 mg/kg, iv; format: ADME, organism-based; settings: in vivo, read-out: beta t1/2 (converted)
structure (smiles),measurement,setting,value
CNCCN1CCC(c2ccc3[nH]c(-c4ccc(OC)c(OC)c4)c(C(C)C)c3c2)CC1,EC50,Toll-like receptor 7,2.4 nM
same,half-life,[1],32 h
